This passage reports IC50 and EC50 results from patent publication US20240279207A1, “SUBSTITUTED ACYL SULFONAMIDES FOR TREATING CANCER” (The Broad Institute, Inc., priority 2020, published 2024).

Assay [1] deals with T1, Recombinant human His-tagged Kat6a protein (amino acids 194-810) (Homo sapiens, UniProt Q92794).
T1 construct: Kat6a protein (amino acids 194-810); His
Nature of the assay: Kat6a activity assay (TR-FRET, acetylation of Histone-H4-derived peptide). Conditions: 60 mins at 22° C., 220 nM H4 peptide, 600 nM Acetyl Coenzyme A, read-out: KAT6A - DPF/HAT domain IC50 [mol/l] (arithmetic mean). The class given is biochemical. (Time-resolved FRET reads energy transfer from a long-lived donor to a nearby acceptor.)

For assay [2], the target named is T2, Recombinant human GST-tagged Kat6b protein (431-end) (Homo sapiens, UniProt Q8WYB5).
T2 construct: Kat6b protein (431-end, N-terminal GST-tag); GST (N)
T2 sequence (Q8WYB5 431-2073): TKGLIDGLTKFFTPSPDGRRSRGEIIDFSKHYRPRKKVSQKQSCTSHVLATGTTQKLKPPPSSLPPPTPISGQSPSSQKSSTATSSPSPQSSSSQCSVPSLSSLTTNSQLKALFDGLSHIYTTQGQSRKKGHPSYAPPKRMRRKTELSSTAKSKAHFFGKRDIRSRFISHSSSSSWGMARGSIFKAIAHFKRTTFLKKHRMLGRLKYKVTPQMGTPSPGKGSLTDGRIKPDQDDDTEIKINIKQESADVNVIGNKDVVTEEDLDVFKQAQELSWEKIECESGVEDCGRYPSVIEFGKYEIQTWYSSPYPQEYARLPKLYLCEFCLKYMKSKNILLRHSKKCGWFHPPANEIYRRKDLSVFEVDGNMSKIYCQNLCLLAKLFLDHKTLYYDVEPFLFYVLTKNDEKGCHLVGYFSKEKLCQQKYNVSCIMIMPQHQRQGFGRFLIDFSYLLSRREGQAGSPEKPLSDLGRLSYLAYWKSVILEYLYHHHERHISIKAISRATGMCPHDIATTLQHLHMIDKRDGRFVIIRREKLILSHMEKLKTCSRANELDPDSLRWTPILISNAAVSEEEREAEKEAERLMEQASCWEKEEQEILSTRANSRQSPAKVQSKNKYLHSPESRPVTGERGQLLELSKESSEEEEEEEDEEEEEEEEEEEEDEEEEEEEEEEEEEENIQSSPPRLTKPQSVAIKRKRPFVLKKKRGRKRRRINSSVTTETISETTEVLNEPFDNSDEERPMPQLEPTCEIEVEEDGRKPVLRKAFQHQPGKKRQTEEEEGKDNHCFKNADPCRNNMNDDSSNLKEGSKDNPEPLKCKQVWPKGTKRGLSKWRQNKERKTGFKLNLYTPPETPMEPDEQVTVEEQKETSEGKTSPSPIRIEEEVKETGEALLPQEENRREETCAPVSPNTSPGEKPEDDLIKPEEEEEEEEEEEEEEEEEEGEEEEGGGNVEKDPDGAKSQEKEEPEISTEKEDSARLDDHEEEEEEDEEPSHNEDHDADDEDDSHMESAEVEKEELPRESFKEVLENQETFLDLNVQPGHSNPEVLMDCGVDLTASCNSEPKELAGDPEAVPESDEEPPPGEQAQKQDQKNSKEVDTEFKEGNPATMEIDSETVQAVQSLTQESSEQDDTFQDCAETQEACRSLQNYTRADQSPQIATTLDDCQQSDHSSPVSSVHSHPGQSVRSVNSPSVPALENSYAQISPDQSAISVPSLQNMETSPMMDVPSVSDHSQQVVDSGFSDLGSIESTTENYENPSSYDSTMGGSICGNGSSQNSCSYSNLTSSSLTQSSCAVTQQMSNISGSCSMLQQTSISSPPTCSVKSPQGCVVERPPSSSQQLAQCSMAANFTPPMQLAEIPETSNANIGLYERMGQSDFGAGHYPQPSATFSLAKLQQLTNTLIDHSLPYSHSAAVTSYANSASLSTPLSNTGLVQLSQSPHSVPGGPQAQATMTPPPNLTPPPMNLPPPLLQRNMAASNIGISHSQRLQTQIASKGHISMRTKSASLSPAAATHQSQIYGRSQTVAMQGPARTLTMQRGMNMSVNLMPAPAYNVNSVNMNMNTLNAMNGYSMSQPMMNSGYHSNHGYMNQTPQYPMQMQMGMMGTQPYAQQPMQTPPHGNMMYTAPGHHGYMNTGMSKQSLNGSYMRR
The assay is described as follows: Kat6b activity assay (TR-FRET, acetylation of Histone-H4-derived peptide). The class given is biochemical. Conditions: 30 mins at 22° C., 500 nM H4 peptide, 600 nM Acetyl Coenzyme A, read-out: KAT6B activity assay IC50 [mol/l] (arithmetic mean). As to the method: Kat6b inhibitory activities of the compounds described in the present invention were quantified using a Fluorescence Resonance Energy Transfer (TR-FRET) assay which measures acetylation of a synthetic, biotinylated Histone-H4-derived peptide by the enzyme.
In this case 50 nl DMSO were used instead of compounds. […] IC50 values were determined by regression analysis based on a 4 parameter equation (minimum, maximum, ICM, Hill; Y=Max+(Min−Max)/(1+(X/ICso) Hill) using the Screener Software (Genedata).

Assay [3] has as its system LCLC97TM1. The assay is described as follows: LCLC97TM1 proliferation assay. The class given is cell-based. Conditions: read-out: LCLC97TM1 proliferation assay, EC50 [M] (arithmetic mean).
Assay [4] relates to ZR-75-1 cells. The assay is described as follows: ZR-75-1 proliferation assay. The class given is cell-based. Conditions: Alamar Blue, read-out: ZR75-1 proliferation assay, EC50 [M] (arithmetic mean). In a few lines: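 ZR-75-1 cells (focal KAT6A amplification), 3000 per well in RPMI 1640 with 2.5% FBS, were exposed to compound in triplicate for 144 h at 37 °C, 5% CO2. Viability read by Alamar Blue fluorescence at 590 nm after 2 h.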
On the technique in general: The colour change of resazurin is a common sign of viable cells or microbes.

The subject of assay [5] is MDA-MB-436 cells. Nature of the assay: MDA-MB-436 proliferation assay (negative control cell line). The class given is cell-based. Conditions: 144 h, Alamar Blue, read-out: MDA-MB-436 proliferation assay, EC50 [M] (arithmetic mean). In a few lines: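 MDA-MB-436 cells (KAT6A deletion, low KAT6A protein) seeded at 3000 cells/well in DMEM/Ham's F12 with 2.5% FBS, treated in triplicate for 144 h at 37° C, 5% CO2. Viability read by Alamar Blue fluorescence at 590 nm after 2 h.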

The subject of assay [6] is ESR1 transcription in MVLN cells. Nature of the assay: MVLN reporter assay: repression of ESR1 transcription (luciferase signal). The class given is cell-based. Conditions: luciferase signal after 24 h, read-out: MVLN reporter assay, IC50 [M] (arithmetic mean). In outline: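 To control for cell loss, Alamar Blue (2 h, 530/590 nm) precedes the 24 h luciferase measurement. The reporter is an ERE from the Xenopus vitellogenin A2 gene driving luciferase, stably transfected into ER-expressing MVLN cells; duplicate samples.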
(In general: Reporter assays use an easily measured gene product as a stand-in for the process of interest.)

Setting [7] is: Homo sapiens, LCLC-97TM1, LCLC97TM1.

Where two headings read alike, the source gives them in different places. Where only a bound is given, the exact number is not on record here.

T1 sequence (Q92794 194-810): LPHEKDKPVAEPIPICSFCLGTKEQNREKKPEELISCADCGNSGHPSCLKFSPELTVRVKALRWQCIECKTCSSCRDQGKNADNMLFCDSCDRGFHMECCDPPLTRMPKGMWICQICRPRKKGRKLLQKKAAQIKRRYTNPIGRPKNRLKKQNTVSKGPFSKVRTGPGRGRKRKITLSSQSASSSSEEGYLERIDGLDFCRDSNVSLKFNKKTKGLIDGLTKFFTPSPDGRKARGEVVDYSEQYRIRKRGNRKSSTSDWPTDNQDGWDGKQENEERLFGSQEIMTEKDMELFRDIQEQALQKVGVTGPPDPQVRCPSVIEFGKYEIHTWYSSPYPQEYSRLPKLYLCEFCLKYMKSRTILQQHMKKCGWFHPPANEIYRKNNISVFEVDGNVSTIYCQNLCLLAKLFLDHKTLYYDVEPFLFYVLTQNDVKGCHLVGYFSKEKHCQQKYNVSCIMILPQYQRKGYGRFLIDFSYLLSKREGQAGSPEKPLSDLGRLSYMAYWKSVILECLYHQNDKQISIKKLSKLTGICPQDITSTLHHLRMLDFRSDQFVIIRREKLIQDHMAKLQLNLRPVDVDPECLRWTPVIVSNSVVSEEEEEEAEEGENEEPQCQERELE

As for `CCOc1ccc(C(C)CC)cc1S(=O)(=O)NC(=O)c1cc2c(F)cc(N3CCC3)cc2o1` (racemic) [Example 207, 6-(Azetidin-1-yl)-N-[(5-sec-butyl-2-ethoxyphenyl)sulfonyl]-4-fluoro-1-benzofuran-2-carboxamide (rac)], the IC50 in assay [1] turned out to be 1.86 nM; in assay [2], 5.65 nM; in assay [6] (Homo sapiens, MVLN, 24 h), 9.04e-09 M. Further, the EC50 was 4.29e-08 M in assay [3] (setting [7]); 1.03e-07 M in assay [4] (Homo sapiens, ZR-75-1, 144 h); more than 2e-05 M in assay [5] (Homo sapiens).

With `CC(C)c1ccc(OCC2CC2(F)F)c(S(=O)(=O)NC(=O)c2cc3c(F)cc(N4CCC4)cc3o2)c1` (racemic) [Example 231, 6-(Azetidin-1-yl)-N-((2-((2,2-difluorocyclopropyl)methoxy)-5-isopropylphenyl)sulfonyl)-4-fluorobenzofuran-2-carboxamide (rac)], the IC50 in assay [1] came out at 4.22 nM; in assay [2], 28.8 nM; in assay [6] (Homo sapiens, MVLN, 24 h) it was 1.83e-08 M. Further, the EC50 in assay [3] (setting [7]) was 1.99e-07 M; in assay [4] (Homo sapiens, ZR-75-1, 144 h), 1.58e-07 M; in assay [5] (Homo sapiens) it was more than 2e-05 M.

As for `CCOc1cccc(OC)c1S(=O)(=O)NC(=O)c1cc2c(F)cc(N3CCC3)cc2o1` [Example 1, 6-(Azetidin-1-yl)-N-(2-ethoxy-6-methoxybenzene-1-sulfonyl)-4-fluoro-1-benzofuran-2-carboxamide], the IC50 is 8.61 nM in assay [1]; 20.9 nM in assay [2]; 3.89e-08 M in assay [6] (Homo sapiens, MVLN, 24 h). Further, the EC50 is 2.13e-07 M in assay [3] (setting [7]); 7.18e-08 M in assay [4] (Homo sapiens, ZR-75-1, 144 h); more than 2e-05 M in assay [5] (Homo sapiens).

`CCOc1ccccc1S(=O)(=O)NC(=O)c1cc2c(F)cc(N3CCC3)cc2o1` [Example 2, 6-(Azetidin-1-yl)-N-(2-ethoxybenzene-1-sulfonyl)-4-fluoro-1-benzofuran-2-carboxamide]: the IC50 in assay [1] was determined as 45.2 nM; in assay [2] it was 95.2 nM; in assay [6] (Homo sapiens, MVLN, 24 h) it was 5.54e-08 M. Besides, the EC50 in assay [3] (LCLC97TM1) is 3.38e-07 M; in assay [4] (Homo sapiens, ZR-75-1, 144 h), 1.64e-07 M; in assay [5] (Homo sapiens), more than 2e-05 M.

`O=C(NS(=O)(=O)c1ccccc1-c1ccccc1)c1cc2ccc(N3CCC3)cc2o1` [Example 26, 6-(Azetidin-1-yl)-N-([1,1′-biphenyl]-2-sulfonyl)-1-benzofuran-2-carboxamide]: the IC50 in assay [1] was found to be 145 nM; in assay [2], 292 nM; in assay [6] (Homo sapiens, MVLN, 24 h) it was 3.85e-07 M. The EC50 in assay [3] (setting [7]) is 3.9e-06 M; in assay [4] (Homo sapiens, ZR-75-1, 144 h), 5.06e-07 M; in assay [5] (Homo sapiens), more than 2e-05 M.

As for `CC(C)c1cccnc1S(=O)(=O)NC(=O)c1cc2c(F)cc(N3CCC3)cc2o1` [Example 79, 6-(Azetidin-1-yl)-4-fluoro-N-[3-(propan-2-yl)pyridine-2-sulfonyl]-1-benzofuran-2-carboxamide], the IC50 is 9.58 nM in assay [1]; 13.6 nM in assay [2]; 2.1e-08 M in assay [6] (Homo sapiens, MVLN, 24 h). The EC50 is 3.9e-08 M in assay [3] (setting [7]); 3.61e-08 M in assay [4] (Homo sapiens, ZR-75-1, 144 h); more than 2e-05 M in assay [5] (Homo sapiens).

As to `CCOc1ccc(C(C)(C)C)cc1S(=O)(=O)NC(=O)c1cc2c(F)cc(N3CC(F)C3)cc2o1` [Example 113, N-(5-tert-butyl-2-ethoxybenzene-1-sulfonyl)-4-fluoro-6-(3-fluoroazetidin-1-yl)-1-benzofuran-2-carboxamide], the IC50 was found to be 4.48 nM in assay [1]; 11.6 nM in assay [2]; 1.08e-08 M in assay [6] (Homo sapiens, MVLN, 24 h). The EC50 is 3.7e-08 M in assay [3] (setting [7]); 2.94e-08 M in assay [4] (Homo sapiens, ZR-75-1, 144 h); more than 2e-05 M in assay [5] (Homo sapiens).

As for `CCOc1ccccc1S(=O)(=O)NC(=O)c1cc2c(F)cc(N3CCC3)cc2o1` [Example 126, Sodium [6-(azetidin-1-yl)-4-fluoro-1-benzofuran-2-carbonyl](2-ethoxybenzene-1-sulfonyl)azanide], the IC50 in assay [1] was 56.5 nM; in assay [2], 285 nM; in assay [6], 9.43e-08 M. Besides, the values for the EC50 in assay [3] (LCLC97TM1), in assay [4] (144 h) and in assay [5] were 1.12e-06 M, 3.07e-07 M and more than 2e-05 M, respectively.

As for `CCOc1ccc(C(C)C)cc1S(=O)(=O)NC(=O)c1cc2c(F)cc(N3CCC3)cc2o1` [Example 128, 6-(Azetidin-1-yl)-N-[2-ethoxy-5-(propan-2-yl)benzene-1-sulfonyl]-4-fluoro-1-benzofuran-2-carboxamide], the IC50 turned out to be 8.15 nM in assay [1]; 15.1 nM in assay [2]; 1.9e-08 M in assay [6] (Homo sapiens, MVLN, 24 h). Besides, the EC50 in assay [3] (setting [7]) is 2.2e-07 M; in assay [4] (Homo sapiens, ZR-75-1, 144 h) it was 6.73e-08 M; in assay [5] (Homo sapiens), more than 2e-05 M.

For the compound `CC(C)Oc1ccccc1S(=O)(=O)NC(=O)c1cc2c(F)cc(N3CCC3)cc2o1` [Example 129, 6-(Azetidin-1-yl)-4-fluoro-N-{2-[(propan-2-yl)oxy]benzene-1-sulfonyl}-1-benzofuran-2-carboxamide], the IC50 stood at 36.4 nM in assay [1]; 51.8 nM in assay [2]; 2.74e-08 M in assay [6] (Homo sapiens, MVLN, 24 h). Also, the EC50 in assay [3] (setting [7]) is 4.11e-07 M; in assay [4] (Homo sapiens, ZR-75-1, 144 h), 1.42e-07 M; in assay [5] (Homo sapiens), more than 2e-05 M.

Consider `Cc1ccc2cccc(S(=O)(=O)NC(=O)c3cc4c(F)cc(N5CCC5)cc4o3)c2n1` [Example 130, 6-(Azetidin-1-yl)-4-fluoro-N-(2-methylquinoline-8-sulfonyl)-1-benzofuran-2-carboxamide], for which the IC50 in assay [1] was 13.7 nM; in assay [2] it was 19.6 nM; in assay [6] (Homo sapiens, MVLN, 24 h), 3.23e-08 M. Further, the EC50 in assay [3] (setting [7]) is 2.36e-07 M; in assay [4] (Homo sapiens, ZR-75-1, 144 h), 8.86e-08 M; in assay [5] (Homo sapiens) it was more than 2e-05 M.

Regarding `O=C(NS(=O)(=O)c1ccccc1OC1CC1)c1cc2c(F)cc(N3CCC3)cc2o1` [Example 131, 6-(Azetidin-1-yl)-N-[2-(cyclopropyloxy)benzene-1-sulfonyl]-4-fluoro-1-benzofuran-2-carboxamide], the IC50 in assay [1] was determined as 23.4 nM; in assay [2], 23.2 nM; in assay [6] (Homo sapiens, MVLN, 24 h) it was 3.83e-08 M. For the same compound, the EC50 is 7.53e-08 M in assay [3] (setting [7]); 2.09e-07 M in assay [4] (Homo sapiens, ZR-75-1, 144 h); more than 2e-05 M in assay [5] (Homo sapiens).

As to `COc1ccc(C(C)(C)C)cc1S(=O)(=O)NC(=O)c1cc2c(F)cc(N3CC(F)C3)cc2o1` [Example 150, N-(5-tert-butyl-2-methoxybenzene-1-sulfonyl)-4-fluoro-6-(3-fluoroazetidin-1-yl)-1-benzofuran-2-carboxamide], the IC50 in assay [1] is 4.25 nM; in assay [2] it was 9.78 nM; in assay [6] (Homo sapiens, MVLN, 24 h) it was 5.97e-09 M. For the same compound, the EC50 in assay [3] (setting [7]) was 4.58e-08 M; in assay [4] (Homo sapiens, ZR-75-1, 144 h) it was 5.78e-08 M; in assay [5] (Homo sapiens), more than 2e-05 M.

Take `CCOc1ccc(C(C)C)cc1S(=O)(=O)NC(=O)c1cc2c(F)cc(N3CC(F)C3)cc2o1` [Example 151, N-[2-ethoxy-5-(propan-2-yl)benzene-1-sulfonyl]-4-fluoro-6-(3-fluoroazetidin-1-yl)-1-benzofuran-2-carboxamide]: the IC50 in assay [1] was 5.81 nM; in assay [2] it was 13.7 nM; in assay [6] (Homo sapiens, MVLN, 24 h), 1.55e-08 M. Besides, the EC50 was 6.63e-08 M in assay [3] (setting [7]); 5.67e-08 M in assay [4] (Homo sapiens, ZR-75-1, 144 h); more than 2e-05 M in assay [5] (Homo sapiens).

On to `Cc1ccc2cccc(S(=O)(=O)NC(=O)c3cc4c(F)cc(N5CC(F)C5)cc4o3)c2n1` [Example 152, 4-Fluoro-6-(3-fluoroazetidin-1-yl)-N-(2-methylquinoline-8-sulfonyl)-1-benzofuran-2-carboxamide], for which the IC50 in assay [1] was 13.9 nM; in assay [2], 20.3 nM; in assay [6] (Homo sapiens, MVLN, 24 h), 3.69e-08 M. In addition, the EC50 in assay [3] (setting [7]) was 1.63e-07 M; in assay [4] (Homo sapiens, ZR-75-1, 144 h), 7.66e-08 M; in assay [5] (Homo sapiens), more than 2e-05 M.

As for `CC(C)c1ccc(OCC2CC2)c(S(=O)(=O)NC(=O)c2cc3c(F)cc(N4CCC4)cc3o2)c1` [Example 214, 6-(azetidin-1-yl)-N-[2-(cyclopropylmethoxy)-5-isopropyl-phenyl]sulfonyl-4-fluoro-benzofuran-2-carboxamide], the IC50 in assay [1] is 3.91 nM; in assay [2] it was 20.3 nM; in assay [6] (Homo sapiens, MVLN, 24 h) it was 2.43e-08 M. For the same compound, the EC50 amounted to 5.77e-07 M in assay [3] (setting [7]) and 4.47e-07 M in assay [4] (Homo sapiens, ZR-75-1, 144 h).
